From patent US20260184708A1, “PYRIDAZINONES AND METHODS OF USE THEREOF” (GFB (ABC), LLC, priority 2017, published 2026)
Read-outs that look alike come from different tables or passages of the source.

Biological target: T1, TRPC5 (Homo sapiens, UniProt Q9UL62)
T1 construct: expressed in transfected cells; host or cells: HEK 293
T1 sequence (Q9UL62 1-973): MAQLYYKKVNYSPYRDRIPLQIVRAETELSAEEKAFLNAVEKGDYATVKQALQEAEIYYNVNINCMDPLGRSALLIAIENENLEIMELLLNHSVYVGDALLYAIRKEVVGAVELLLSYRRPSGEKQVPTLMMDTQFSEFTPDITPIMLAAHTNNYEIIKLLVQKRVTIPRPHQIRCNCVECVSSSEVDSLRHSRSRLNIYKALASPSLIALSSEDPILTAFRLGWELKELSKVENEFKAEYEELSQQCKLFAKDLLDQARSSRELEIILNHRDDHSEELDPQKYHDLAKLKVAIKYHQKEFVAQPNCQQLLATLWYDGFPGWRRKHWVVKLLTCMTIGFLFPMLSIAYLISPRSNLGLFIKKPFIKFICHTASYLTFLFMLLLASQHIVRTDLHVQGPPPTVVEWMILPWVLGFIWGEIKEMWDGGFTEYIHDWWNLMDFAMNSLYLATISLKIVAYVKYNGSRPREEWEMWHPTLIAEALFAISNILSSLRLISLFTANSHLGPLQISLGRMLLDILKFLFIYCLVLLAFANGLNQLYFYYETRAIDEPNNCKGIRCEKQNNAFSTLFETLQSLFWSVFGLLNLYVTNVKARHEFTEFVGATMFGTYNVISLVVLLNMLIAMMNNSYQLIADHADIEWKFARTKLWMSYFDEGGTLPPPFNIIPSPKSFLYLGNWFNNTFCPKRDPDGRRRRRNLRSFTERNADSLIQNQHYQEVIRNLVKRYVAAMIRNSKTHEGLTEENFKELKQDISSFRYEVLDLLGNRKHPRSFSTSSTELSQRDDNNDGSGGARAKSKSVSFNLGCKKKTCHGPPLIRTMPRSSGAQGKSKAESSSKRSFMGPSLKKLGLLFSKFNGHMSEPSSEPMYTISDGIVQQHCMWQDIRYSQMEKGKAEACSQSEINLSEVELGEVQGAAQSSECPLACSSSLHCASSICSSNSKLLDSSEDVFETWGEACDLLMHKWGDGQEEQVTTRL
Assay: TRPC5 automated patch clamp assay (Qpatch), current block after rosiglitazone stimulation
Assay type: cell-based
Procedure: HEK 293 cells expressing human TRPC5 were harvested, re-suspended in serum free medium, and added to the automated platform and used within 2-3 hours. Internal and external physiological solutions were freshly prepared prior to the assay. The external solution contained: 145 mM NaCl, 4 mM KCl, 2 mM CaCl2), 1 mM MgCl2, 10 mM HEPES, 10 mM glucose, pH 7.4 with NaOH and 300 mOsm/L. The internal solution contained 120 mM L-aspartic acid, 120 mM CsOH·H2O, 20 mM CsCl, 2 mM MgCl2, 8.8 mM CaCl2), 10 mM EGTA, 10 mM HEPES, 10 mM Glucose, 0.1 mM GTP and 2 mM Na2ATP; pH 7.2 with CsOH and 290 mOsm/L. The free internal Ca2+ concentration was buffered to 1 μM.
The automated electrophysiological platform QPatch 16 from Sophion (Denmark) was used to carry out the compounds profiling. The series resistance and quality of seals were continuously monitored during the experiments. Data was analyzed using Sophion QPatch assay software 5.6 (Odense). IC50 values were calculated using a least squares regression algorithm (Hill equation).
To monitor the ion currents, a voltage ramp from −100 mV to +100 mV, over 300 ms, was applied every 10 seconds, from a holding potential of −60 mV.
After recording for a minimum of 60 seconds control period, Rosiglitazone (30 uM), was applied to activate the channel.

[1] = HEK293 cells overexpressing TRPC5, rosiglitazone stimulation, 80 mV, read-out: TRPC5_QP XC50_80
[2] = HEK293 cells overexpressing TRPC5, rosiglitazone stimulation, 100 mV, read-out: TRPC5_QP XC50_100
[3] = Table 3, HEK293 cells overexpressing TRPC5, rosiglitazone stimulation, 80 mV, read-out: TRPC5_QP_ XC50_80
[4] = Table 3, HEK293 cells overexpressing TRPC5, rosiglitazone stimulation, 100 mV, read-out: TRPC5_QP_ XC50_100

IC50 [1] [µM]	IC50 [2] [µM]	IC50 [3] [µM]	IC50 [4] [µM]	Structure (SMILES)	IC50 [µM]
1 to 5	1 to 5			Cc1ccccc1CN1CCN(c2cn[nH]c(=O)c2Br)CC1	
1 to 5	1 to 5			Cc1ccccc1CN1CCN(c2c(Br)cn[nH]c2=O)CC1	
10 to 500	10 to 500			O=c1[nH]ncc(N2CCC(Cc3ccccc3)CC2)c1Br	
5 to 10	5 to 10			O=c1[nH]ncc(N2CCN(Cc3ccccc3)CC2)c1Br	
10 to 500	10 to 500			O=c1[nH]ncc(N2CCN(S(=O)(=O)c3ccccc3)CC2)c1Br	
10 to 500	10 to 500			O=C(c1ccccc1)N1CCN(c2cn[nH]c(=O)c2Br)CC1	
10 to 500	10 to 500			Cc1ccccc1S(=O)(=O)N1CCN(c2cn[nH]c(=O)c2Br)CC1	
5 to 10	5 to 10			Cc1ccccc1C(=O)N1CCN(c2cn[nH]c(=O)c2Br)CC1	
1 to 5	5 to 10			CC(c1ccccc1)N1CCN(c2cn[nH]c(=O)c2Br)CC1 (stereo not drawn)	
1 to 5	1 to 5			Cc1cccc(C)c1CN1CCN(c2cn[nH]c(=O)c2Br)CC1	
5 to 10	5 to 10			Cc1ccccc1CN1CCCN(c2cn[nH]c(=O)c2Br)CC1	
		10 to 500	10 to 500	O=c1[nH]ncc(N2CCCN(Cc3ccccc3)CC2)c1Br	
		10 to 500	10 to 500	CC(C)(C)CN1CCN(c2cn[nH]c(=O)c2Br)CC1	
		1 to 5	1 to 5	Cc1cc(F)ccc1CN1CCN(c2cn[nH]c(=O)c2Br)CC1	
		5 to 10	5 to 10	Cn1nccc1CN1CCN(c2cn[nH]c(=O)c2Br)CC1	
		1 to 5	1 to 5	Cc1ccccc1C(C)N1CCN(c2cn[nH]c(=O)c2Br)CC1 (stereo not drawn)	

Second part, the molecule before the results:

Structure (SMILES)	IC50 [1] [µM]	IC50 [2] [µM]	IC50 [3] [µM]	IC50 [4] [µM]	IC50 [µM]
Cc1ccccc1CN1CCN(c2cn[nH]c(=O)c2)CC1	10 to 500	10 to 500			
NC(=O)CN1CCN(c2cn[nH]c(=O)c2Br)CC1	10 to 500	10 to 500			
CN1CCN(c2cn[nH]c(=O)c2Br)CC1	10 to 500	10 to 500			
CS(=O)(=O)N1CCN(c2cn[nH]c(=O)c2Br)CC1	10 to 500	10 to 500			
CN(C)C(=O)CN1CCN(c2cn[nH]c(=O)c2Br)CC1	10 to 500	10 to 500			
O=c1[nH]ncc(N2CCN(CC3CCCCC3)CC2)c1Br	1 to 5	1 to 5			
O=c1[nH]ncc(N2CCN(Cc3ccccc3)C3(CC3)C2)c1Br	10 to 500	10 to 500			
Cc1ccccc1CN1CCN(c2cn[nH]c(=O)c2Br)CC12CC2	10 to 500	10 to 500			
Cc1ccccc1CN1CC2CC(C1)N2c1cn[nH]c(=O)c1Br	10 to 500	10 to 500			
O=c1[nH]ncc(N2C3CCC2CN(Cc2ccccc2)C3)c1Br	10 to 500	10 to 500			
O=c1[nH]ncc(N2CCCNCC2)c1Br			10 to 500	10 to 500	
Cc1ccccc1CN1CC2CCC(C1)N2c1cn[nH]c(=O)c1Br			10 to 500	10 to 500	
Cc1ccccc1CN1C2CC1CN(c1cn[nH]c(=O)c1Br)C2			10 to 500	10 to 500	
Cn1ccnc1CN1CCN(c2cn[nH]c(=O)c2Br)CC1			10 to 500	10 to 500	
O=c1[nH]ncc(N2CC3(CN(Cc4ccccc4)C3)C2)c1Br			10 to 500	10 to 500	
Cc1cc(F)ccc1CN1CCN(c2c(Cl)cn[nH]c2=O)CC1			1 to 5	1 to 5	
Cc1ccccc1CN1CCN(c2cn[nH]c(=O)c2C(F)(F)F)CC1=O			1 to 5	5 to 10	
O=c1[nH]ncc(N2CCN(Cc3ccc(F)cc3F)CC2)c1Cl			5 to 10	5 to 10	
O=c1[nH]ncc(N2CCN(Cc3ccc(C(F)(F)F)cc3)CC2)c1Cl			10 to 500	10 to 500	
O=c1[nH]ncc(N2CCN(Cc3c(F)cccc3F)CC2)c1Cl			1 to 5	1 to 5	
O=C1CN(c2cn[nH]c(=O)c2Cl)CCN1Cc1c(F)cccc1F			1 to 5	1 to 5	
O=c1[nH]ncc(N2CCc3c(ncn3Cc3cccc(C(F)(F)F)c3)C2)c1Cl					1 to 5
